# According to PubChem BioAssay AID1919009 (Molecular Pharmacology Branch, DTP, NCI, 2023):
# Tested on: K24384-001-R-PDC complex spheroid growth
# Experiment: Anticancer human tumor K24384-001-R-PDC patient-derived pancreatic adenocarcinoma cell line growth inhibition [AhR]
# Details: for IC50: curve of first compound; for viability, T/C: stronger effect = lower value
# Method in brief: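 Complex tumor spheroids co-cultured with HUVEC and human MSC stroma; AhR antagonists tested in combination with standard-of-care and investigational agents. Top concentration at or near clinical Cmax (else 10 microM), half-log dilutions; growth expressed as percent test/control.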
# [1] = second compound 0.1 µM, first compound 0.0316 µM
# [2] = second compound 0.1 µM, first compound 0.1 µM
# [3] = second compound 0.1 µM, first compound 0.316 µM
# [4] = second compound 0.1 µM, first compound 1 µM
# [5] = second compound 0.316 µM, first compound 0.0316 µM
# [6] = second compound 0.316 µM, first compound 0.1 µM
# [7] = second compound 0.316 µM, first compound 0.316 µM
# [8] = second compound 0.316 µM, first compound 1 µM
# [9] = second compound 1 µM, first compound 0.0316 µM
# [10] = second compound 1 µM, first compound 0.1 µM
# [11] = second compound 1 µM, first compound 0.316 µM
# [12] = second compound 1 µM, first compound 1 µM
# [13] = second compound 3.16 µM, first compound 0.0316 µM
# [14] = second compound 3.16 µM, first compound 0.1 µM
# [15] = second compound 3.16 µM, first compound 0.316 µM
# [16] = second compound 3.16 µM, first compound 1 µM
# [17] = second compound 10 µM, first compound 0.0316 µM
# [18] = second compound 10 µM, first compound 0.1 µM
# [19] = second compound 10 µM, first compound 0.316 µM
# [20] = second compound 10 µM, first compound 1 µM
# 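For viability, T/C in this document: percent of DMSO vehicle-treated spheroid viability set as 100%.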
IC50 (second compound 0.1 µM) [nM],IC50 (second compound 0.316 µM) [nM],IC50 (second compound 1 µM) [nM],IC50 (second compound 3.16 µM) [nM],IC50 (second compound 10 µM) [nM],SMILES,"viability, T/C [1] [%]","viability, T/C [2] [%]","viability, T/C [3] [%]","viability, T/C [4] [%]","viability, T/C [5] [%]","viability, T/C [6] [%]","viability, T/C [7] [%]","viability, T/C [8] [%]","viability, T/C [9] [%]","viability, T/C [10] [%]","viability, T/C [11] [%]","viability, T/C [12] [%]","viability, T/C [13] [%]","viability, T/C [14] [%]","viability, T/C [15] [%]",also measured
115,91,94.7,54.6,52.5,CC1COCCN1c1cc(-c2ccnn2C)c2ccnc(-c3ccn[nH]3)c2n1 (stereo not given) + CC(CO)NC(=O)c1cc(-c2ccc(Cl)cc2)nn(-c2cnn(C)c2)c1=O,80.8,51.7,33,26.4,75.5,50.9,32.3,24.3,86.4,49,28,21.3,64.2,34.2,23.7,"viability, T/C (second compound 0.1 µM, first compound 0.00316 µM): 105%; viability, T/C (second compound 0.1 µM, first compound 0.01 µM): 93.7%; viability, T/C (second compound 0.316 µM, first compound 0.00316 µM): 111%; viability, T/C (second compound 0.316 µM, first compound 0.01 µM): 118%; viability, T/C (second compound 1 µM, first compound 0.00316 µM): 94%; viability, T/C (second compound 1 µM, first compound 0.01 µM): 121%; viability, T/C (second compound 3.16 µM, first compound 0.00316 µM): 73.1%; viability, T/C (second compound 3.16 µM, first compound 0.01 µM): 74.8%; viability, T/C [16]: 25.2%; viability, T/C (second compound 10 µM, first compound 0.00316 µM): 85.8%; viability, T/C (second compound 10 µM, first compound 0.01 µM): 79.2%; viability, T/C [17]: 60.1%; viability, T/C [18]: 37.7%; viability, T/C [19]: 27.2%; viability, T/C [20]: 28.4%"
> 10000,3120,9450,3590,> 10000,CC1COCCN1c1cc(C2(S(C)(=N)=O)CC2)nc(-c2ccnc3[nH]ccc23)n1 (stereo not given) + CC(CO)NC(=O)c1cc(-c2ccc(Cl)cc2)nn(-c2cnn(C)c2)c1=O,113,128,133,77.7,136,133,136,84.2,142,139,136,103,125,96.8,132,"viability, T/C (second compound 0.1 µM, first compound 3.16 µM): 55.8%; viability, T/C (second compound 0.1 µM, first compound 10 µM): 42.8%; viability, T/C (second compound 0.316 µM, first compound 3.16 µM): 52.7%; viability, T/C (second compound 0.316 µM, first compound 10 µM): 46.2%; viability, T/C (second compound 1 µM, first compound 3.16 µM): 66.5%; viability, T/C (second compound 1 µM, first compound 10 µM): 48.6%; viability, T/C [16]: 96.4%; viability, T/C (second compound 3.16 µM, first compound 3.16 µM): 53.1%; viability, T/C (second compound 3.16 µM, first compound 10 µM): 40.6%; viability, T/C [17]: 122%; viability, T/C [18]: 125%; viability, T/C [19]: 130%; viability, T/C [20]: 107%; viability, T/C (second compound 10 µM, first compound 3.16 µM): 64%; viability, T/C (second compound 10 µM, first compound 10 µM): 53.9%"
